Laboratory results from US20090048310A1, “AGENT FOR PREVENTION/TREATMENT OF DISEASE CAUSED BY ACYCLOVIR-RESISTANT HERPESVIRUS” (ASTELLAS PHARMA INC., priority 2005, published 2009).
Read-outs that look alike come from different tables or passages of the source.

What was measured:
[1] = system: ACV-resistant VZV (Kanno-Br^ACV-R strain); test: Anti-ACV-resistant VZV activity assay (plaque reduction); assay type: cell-based, varicella zoster virus (VZV); conditions: Human alphaherpesvirus 3, HEF, read-out: EC50, concentration which inhibits 50% of the number of plaques (Example 1)
Procedure: This assay was carried out in reference to the method described by Shigeta S. in The Journal of Infectious Diseases, 147, 3, 576-584, (1983). Specifically, 10,000 cells of human embryonic fibroblast (HEF) were inoculated into a 96 well microtiter plate using a growth medium (Eagle MEM (Nissui) supplemented with 10% (v/v) fetal bovine serum (FBS, Sigma)) and cultured at 37° C. for 4 days under 5% CO2 until they became a monolayer. […] The plate was centrifuged at room temperature at 2000 rpm for 20 minutes and then incubated at 37° C. for 3 hours under 5% CO2 for infection with VZV. After washing three times with the maintenance medium 100 μl of each test drug diluted to an appropriate concentration with the maintenance medium was added to each well. After culturing the cells at 37° C. for 3 to 4 days under 5% CO2, 10% formalin/PBS was added thereto in 100 μl/well portions, and the cells were fixed for 2 to 3 hours. The fixing liquid and culture supernatant were discarded and the plate was washed with water, and then staining was carried out for 2 to 3 minutes by adding a staining liquid (0.025% Crystal Violet) in 50 μl/well portions, and the plate was washed with water and dried at 37° C. The HEF cells infected with VZV cause cell death, and plaques consisting of the dead cells are formed in the mono-layered HEF cells.

ACV-resistant HSV-1 = ACV-resistant HSV-1 infection lethal model in nude mice; assay type: in vivo, nude mouse (CD-1(ICR)-nu/nu); conditions: 100 mg/kg oral twice a day for 15 days; for death suppressing effect (in words): 17 days after infection
Procedure: ACV-resistant HSV-1 (3×10^6 pfu) was inoculated into the peritoneal cavity of each nude mouse (CD-1(ICR)-nu/nu, […], female, Charles River Japan) to cause infection with the virus. Each compound to be tested was made into a methyl cellulose suspension and orally administered at a dose of 100 mg/kg, twice a day for 15 days starting 1 hour after the infection (from 0 to 14 days after the infection).
During 17 days after the infection, death of the mice caused by ACV-resistant HSV-1 infection was observed every day, and the number of survived animals was counted.

[2] = system: ACV-resistant HSV-1 (A4-3^ACV-R strain); test: Anti-ACV-resistant HSV-1 activity assay (plaque reduction); assay type: cell-based
Procedure: A total of from 100,000 to 150,000 cells of an African green monkey kidney cell (Vero cell) were inoculated into a 24 well plate using a growth medium (Eagle MEM (Nissui) supplemented with 10% FBS) and cultured at 37° C. for 3 to 4 days under 5% CO2 until they became a monolayer. After washing the cells with a maintenance medium, ACV-resistant HSV-1 (A4-3^ACV-R strain) which had been diluted with the maintenance medium (Eagle MEM supplemented with 2% FBS) to a viral titer of from 100 to 250 pfu/200 μl was inoculated therein in 200 μl/well portions. The plate was centrifuged at room temperature at 1500 rpm for 40 minutes and then incubated at 37° C. for 1 hour under 5% CO2 for infection with HSV-1. After washing three times with the maintenance medium, 100 μl of each test drug diluted to an appropriate concentration with the maintenance medium was added to each well. After culturing the cells at 37° C. for 3 to 4 days under 5% CO2, 10% formalin/PBS was added thereto in 200 μl/well portions, and the cells were fixed for 2 to 3 hours. The fixing liquid and culture supernatant were discarded and the plate was washed with water, and then staining was carried out for 2 to 3 minutes by adding a staining liquid (0.025% Crystal Violet) in 100 μl/well portions, and the plate was washed with water and dried at 37° C. The Vero cells infected with HSV-1 cause cell death, and plaques consisting of the dead cells are formed in the mono-layered Vero cells.

HSV-1 strain WT-51 = test: Cutaneous HSV-1 infection mouse model; assay type: in vivo, HR-1 hairless mouse; conditions: oral, 10 mg/kg twice a day for 5 days, scores for 17 days
Procedure: Using a cutaneous HSV-1 infection mouse model prepared in reference to the method of H. Machida et al. (Antiviral Res., 1992, 17, 133-143), the in vivo […] of the compounds of the present invention was tested using an animal model. The skin of each HR-1 hairless mouse [female, 7 weeks of age] was scratched lengthwise and breadthwise several times using a needle and a virus suspension (HSV-1 strain WT-51, 1.5×10^4 PFU/15 μl) was dropped to the scarified region for infection, while anesthetized with diethyl ether.
Tested compounds were administered orally as a methyl cellulose suspension, except for compounds marked with asterisk which were dissolved in 20% Cremophor EL (Nacalai Tesque)/20% polyethylene glycol (PEG) 400/60% H2O solution, starting at 3 hours after the infection, and then at a dose of 10 mg/kg twice a day for 5 days. The symptom of the skin lesion caused by HSV-1 infection were classified in the following scores for 17 days:
Score 0: no signs of infection.
Score 1: localized, barely perceptible small vesicles.
Score 2: slight vesicle spread.
Score 3: large patches of vesicles formed.
Score 4: zosteriform vesicles.
Score 5: large patches of ulcers formed.
Score 6: zosteriform with severe large ulcers.
Score 7: hind limb paralysis or death.
The AUC value was calculated from each group's mean disease score, and the disease inhibitory rate of the group administered with each test compound to the placebo group was calculated using the AUC.

[3] = Human alphaherpesvirus 1, Vero, read-out: EC50, concentration which inhibits 50% of the number of plaques (Example 2), ACV-resistant HSV-1 A4-3 ACV-R strain in Vero cells

In the case of `Cc1cccc(C)c1N(CC(=O)Nc1ccc(-c2ncon2)cc1)C(=O)C1CCS(=O)(=O)CC1` [Preparation 27, N-(2,6-dimethylphenyl)-N-(2-{[4-(1,2,4-oxadiazol-3-yl)phenyl]amino}-2-oxoethyl)tetrahydro-2H-thiopyran-4-carboxamide 1,1-dioxide], the EC50 [1] is reported as 82 nM, the “death suppressing effect (in words)” value (ACV-resistant HSV-1) is reported as “completely suppressed death of the mice” and the “The number of survived animals (n = 10)” value (ACV-resistant HSV-1; day 0 after infection) is reported as 10. For the same compound, the “The number of survived animals (n = 10)” value (ACV-resistant HSV-1; day 1 after infection) was 10, the “The number of survived animals (n = 10)” value (ACV-resistant HSV-1; day 2 after infection) was 10 and the “The number of survived animals (n = 10)” value (ACV-resistant HSV-1; day 4 after infection) was 10. For the same compound, the “The number of survived animals (n = 10)” value (ACV-resistant HSV-1; day 5 after infection) was 10, the “The number of survived animals (n = 10)” value (ACV-resistant HSV-1; day 6 after infection) was 10 and the “The number of survived animals (n = 10)” value (ACV-resistant HSV-1; day 7 after infection) was 10. For the same compound, the “The number of survived animals (n = 10)” value (ACV-resistant HSV-1; day 8 after infection) was 10, the “The number of survived animals (n = 10)” value (ACV-resistant HSV-1; day 9 after infection) was 10 and the “The number of survived animals (n = 10)” value (ACV-resistant HSV-1; day 10 after infection) was 10. For the same compound, the “The number of survived animals (n = 10)” value (ACV-resistant HSV-1; day 11 after infection) was 10, the “The number of survived animals (n = 10)” value (ACV-resistant HSV-1; day 12 after infection) was 10 and the “The number of survived animals (n = 10)” value (ACV-resistant HSV-1; day 14 after infection) was 10. The “The number of survived animals (n = 10)” value (ACV-resistant HSV-1; day 16 after infection) was 10, the “The number of survived animals (n = 10)” value (ACV-resistant HSV-1; day 17 after infection) was 10 and the EC50 [2, 3] was 68 nM.
Work on `Nc1nc2c(ncn2COCCO)c(=O)[nH]1` [ACV, acyclovir] yielded an EC50 [2, 3] of 68000 nM and an EC50 ([2]; read-out: EC50, concentration which inhibits 50% of the number of plaques (Example 2), ACV-resistant HSV-1 A4-3 ACV-R strain in Vero cells) of 120000 nM.
`Cc1ccc(N(CC(=O)Nc2ccc(-c3cocn3)cc2)C(=O)C2CCS(=O)(=O)CC2)cc1` [Preparation 2, N-(4-methylphenyl)-N-(2-{[4-(1,3-oxazol-4-yl)phenyl]amino}-2-oxoethyl)tetrahydro-2H-thiopyran-4-carboxamide 1,1-dioxide] was tested, and the EC50 [1] was 35 nM, the “death suppressing effect (in words)” value (ACV-resistant HSV-1) was “completely suppressed death of the mice” and the “The number of survived animals (n = 10)” value (ACV-resistant HSV-1; day 0 after infection) was 10. For the same compound, the “The number of survived animals (n = 10)” value (ACV-resistant HSV-1; day 1 after infection) was 10, the “The number of survived animals (n = 10)” value (ACV-resistant HSV-1; day 2 after infection) was 10 and the “The number of survived animals (n = 10)” value (ACV-resistant HSV-1; day 4 after infection) was 10. For the same compound, the “The number of survived animals (n = 10)” value (ACV-resistant HSV-1; day 5 after infection) was 10, the “The number of survived animals (n = 10)” value (ACV-resistant HSV-1; day 6 after infection) was 10 and the “The number of survived animals (n = 10)” value (ACV-resistant HSV-1; day 7 after infection) was 10. The “The number of survived animals (n = 10)” value (ACV-resistant HSV-1; day 8 after infection) was 10, the “The number of survived animals (n = 10)” value (ACV-resistant HSV-1; day 9 after infection) was 10 and the “The number of survived animals (n = 10)” value (ACV-resistant HSV-1; day 10 after infection) was 10. The “The number of survived animals (n = 10)” value (ACV-resistant HSV-1; day 11 after infection) was 10, the “The number of survived animals (n = 10)” value (ACV-resistant HSV-1; day 12 after infection) was 10 and the “The number of survived animals (n = 10)” value (ACV-resistant HSV-1; day 14 after infection) was 10. For the same compound, the “The number of survived animals (n = 10)” value (ACV-resistant HSV-1; day 16 after infection) was 10, the “The number of survived animals (n = 10)” value (ACV-resistant HSV-1; day 17 after infection) was 10 and the EC50 [2, 3] was 35 nM.
With `Cc1cccc(C)c1N(CC(=O)Nc1ccc(-c2cocn2)cc1)C(=O)C1CCS(=O)(=O)CC1` [Preparation 1, N-(2,6-dimethylphenyl)-N-(2-{[4-(1,3-oxazol-4-yl)phenyl]amino}-2-oxoethyl)tetrahydro-2H-thiopyran-4-carboxamide 1,1-dioxide] the “Inhibition ratio (%) (disease inhibitory rate vs placebo from AUC of mean disease score)” value (from here on “Inhibition ratio (%)”) (HSV-1 strain WT-51; dissolved in 20% Cremophor EL/20% PEG 400/60% H2O (asterisk)) was “* 93%”.
In the case of `Cc1ccc(N(CC(=O)Nc2ccc(-c3cocn3)cc2)C(=O)C2CCS(=O)(=O)CC2)c(F)c1` [Preparation 20, N-(2-fluoro-4-methylphenyl)-N-(2-{[4-(1,3-oxazol-4-yl)phenyl]amino}-2-oxoethyl)tetrahydro-2H-thiopyran-4-carboxamide 1,1-dioxide], the “Inhibition ratio (%)” value (HSV-1 strain WT-51; methyl cellulose suspension) is reported as 91%.
In the case of `Cc1cccc(N(CC(=O)Nc2ccc(-c3cocn3)cc2)C(=O)C2CCS(=O)(=O)CC2)c1` [Preparation 3, N-(3-methylphenyl)-N-(2-{[4-(1,3-oxazol-4-yl)phenyl]amino}-2-oxoethyl)tetrahydro-2H-thiopyran-4-carboxamide 1,1-dioxide], the “Inhibition ratio (%)” value (HSV-1 strain WT-51; methyl cellulose suspension) is reported as 70%.
